Measurements reported in ChEMBL document CHEMBL3232861, “Metabolites of antroquinonol found in rat urine following oral administration” (J Nat Prod, 2014).

Columns and labels:
Format in all cases: ADME, organism-based
Set-up in all cases: dose 200 mg/kg, route oral
Conditions in all cases: in vivo
[1] = Drug excretion in Wistar rat urine treated with antroquinonol at 200 mg/kg, po administered via gavage measured after 24 hrs by HPLC-SPE-TT-NMR analysis
[2] = Drug excretion in Wistar rat urine assessed as (E)-6-((1R,2R,6R)-2-Hydroxy-3,4-dimethoxy-6-methyl-5-oxocyclo-hex-3-enyl)-4-methylhex-4-enoic acid level at 200 mg/kg, po administered via gavage measured after 24 hrs by HPLC-SPE-TT-NMR analysis
[3] = Drug excretion in Wistar rat urine assessed as (E)-6-((1R,2R ,6R)-2,5-Dihy droxy-4-methoxy-6-methyl-3-oxocyclo-hex-4-enyl)-4-methylhex-4-enoic acid level at 200 mg/kg, po administered via gavage measured after 24 hrs by HPLC-SPE-TT-NMR analysis
[4] = Drug excretion in Wistar rat urine assessed as (E)-6-((1R,2R,6R)-2-Hydroxy-3,4-dimethoxy-6-methyl-5-oxocyclo-hex-3-enyl)-4-methylhex-3-enoic acid level at 200 mg/kg, po administered via gavage measured after 24 hrs by HPLC-SPE-TT-NMR analysis
[5] = Drug excretion in Wistar rat urine assessed as (E)-6-((1R,2R ,6R)-2,5-Dihy droxy-4-methoxy-6-methyl-3-oxocyclo-hex-4-enyl)-4-methylhex-3-enoic acid level at 200 mg/kg, po administered via gavage measured after 24 hrs by HPLC-SPE-TT-NMR analysis

Row | Drug excretion [1] | Structure (SMILES) | also measured
1 | metabolite_detected | COC1=C(OC)[C@H](O)[C@H](C/C=C(\C)CCC(=O)O)[C@@H](C)C1=O | –
2 | metabolite_detected | COC1=C(OC)[C@H](O)[C@H](CC/C(C)=C/CC(=O)O)[C@@H](C)C1=O | –
3 | metabolite_detected | COC1=C(O)[C@H](C)[C@@H](CC/C(C)=C/CC(=O)O)[C@@H](O)C1=O | –
4 | metabolite_detected | COC1=C(O)[C@H](C)[C@@H](C/C=C(\C)CCC(=O)O)[C@@H](O)C1=O | –
5 | – | COC1=C(OC)[C@H](O)[C@H](C/C=C(\C)CC/C=C(\C)CCC=C(C)C)[C@@H](C)C1=O [ANTROQUINONOL] | Drug excretion [2]: metabolite_detected; Drug excretion [3]: metabolite_detected; Drug excretion [4]: metabolite_detected; Drug excretion [5]: metabolite_detected
